Source: PMC8647499, “Preclinical evaluation of strasseriolides A–D, potent antiplasmodial macrolides isolated from Strasseria geniculata CF-247,251” (Malaria Journal, 2021)
“And” between values parts separate entries of the source, which are not always exact repeats. Identical values can stand only once. Like-named read-outs stand apart in the source and are kept apart here.

Columns and labels:
[1] = system: transgenic P. berghei line 676m1cl1 (PbGFP-Luccon), ANKA strain; experiment: In vivo efficacy in P. berghei infected mice (luciferase activity); design: species or system Plasmodium berghei in Swiss Webster female mice; settings: chloroquine 20 mg/kg; for Parasitaemia (Luminescence arbitrary units), Average ± SD: 4 days from 48 h post-infection
Procedure: In vivo efficacy experiments were performed at the Anti-infectives Screening Core Services facility of the New York University School of Medicine. The transgenic P. berghei line 676m1cl1 parasite (PbGFP-Luccon) expressing the fusion GFP (mutant 3) and firefly luciferase (LucIAV) proteins generated in the reference clone of ANKA strain cl15cy1 was used. Swiss Webster female mice were infected with transgenic P. berghei line 676m1cl1 (PbGFP-Luccon) ANKA-infected 10³ red blood cells. Treatment was then started 48 h post-parasite infection by i.p. dosage of 22 mg/kg of strasseriolide D and 50 mg/kg of strasseriolide C. Vehicle only (PBS 2% methylcellulose, 0.5% Tween 80) and 20 mg/kg chloroquine were used as negative and positive controls. The infected mice were treated for four days, after which luciferase activity of the parasites was quantified 5 to 10 min after i.p. injection of 150 mg/kg D-Luciferin Potassium-salt (Goldbio) dissolved in PBS using an IVIS® Lumina II imager on the fifth day.
The Genedata Screener online application (Genedata AG, Basel, Switzerland) was used to compute IC50 values. The Smart Fit strategy with Hill model was selected as the choice for curve fitting. Where applicable, data are presented as mean ± standard deviation (SD). In Fig. 3, the significant differences between the vehicle controls and test compounds were calculated by the Student’s t test.

[2] = Metabolic stability assay in human liver microsomes; format: in vitro ADME; settings: for half-life: pH 7.4, 1 mg/mL protein; for Clearance Category: ranked by CLint
Procedure: Pretreatment of the 96-well ABgen-0765 reaction plates was the same as previously described above. Two microlitres (2 µL) of compounds (previously dissolved in DMSO) were pre-incubated with 98 µL of cofactor/buffer solution (0.1 M phosphate buffer of pH 7.4, 100 mM K3PO4, 3.3 mM MgCl2, 3.3 mM G6P, 1.3 mM NADPH, and 0.4 u/mL G6PDH) at 37 °C for 10 min. The reactions were then initiated by the addition of 100 µL of HLM solution (at final protein concentration of 1 mg/mL), after which they were stopped at pre-determined incubation times of 0, 10, 15, 30, 45 and 60 min by adding 90 µL acetonitrile containing internal LC–MS–MS standards and shaking at 180 Hz. The samples were centrifuged to sediment the protein precipitates and the supernatants were analysed by LC–MS–MS as previously described above. The integration of each analyte (the […]) and internal standard peak area was performed by the Analyst® software version 1.5.2 and used to calculate the percentage of remaining compound at each incubation time. The natural logarithm of the percentage of the remaining parent compound was plotted against the incubation time and used to calculate the half-life by the following equation:
Half-life (T ½ min) = 0.693/k, where k is the slope of a plot of the natural log of the percentage parent compound remaining vs. time.
The intrinsic clearance (CLint) was determined by the equation: CLint
=Ln2/t1/2min∗volumeincubationmL/microsomalproteinmg∗45MPPGL1500ghumanliver/70kghumanbodyweightj
Units for CLint were expressed as mL/min/mg microsomal protein and MPPGL = mg microsomal protein per gram liver.

[3] = system: mice; experiment: In vivo toxicity in mice after i.v. injection
Procedure: (§1) Three Balb/C mice (6–8 weeks old) were intravenously injected with 25 mg/kg of strasseriolide D dissolved in 200 µL of vehicle (0.5%HPMC, 0.5% Tween 80 and 0.5% Benzyl alcohol in water). Blood samples were collected by pricking the […] on the leg of each mouse at time points 1.5 (T 1.5 h), 5 (T 5 h) and 24 h (T 24 h). From the harvested blood, 50 µL plasma were prepared for all the samples and stored at -80 °C until needed. A previously developed LC–MS–MS method (see supporting information) was used to determine the plasma concentration of strasseriolide D as described below.
(§2) Similar sample preparation and LC–MS–MS analysis were respectively performed for mice intravenously injected with strasseriolides A and C as test compounds and mice blood samples collected at 30 min (T 30 M), 2 h (T 2 h), 6 h (T 6 h) and 24 h (T 24 h). […] For strasseriolides A, B and C as test compounds; strasseriolides C, D and B were respectively used as internal standards. After LC–MS–MS analysis, the plasma concentration of compound vs. time data was determined for each strasseriolide.
Animals were observed individually at 15, 30 and 60 min after dosing and periodically during the first 24 h for any clinical signs of toxicity or mortality. The toxicity evaluation was carried out by observing behaviour parameters, including the Grimace scale parameters. The mice were sacrificed, and the main organs were examined by visual inspection during autopsy.

[4] = Quantification of compounds in mice plasma by LC-MS-MS and PK parameters after i.v. injection; format: in vivo; settings: for Plasma Conc. @Tinitial: mice, Tinitial 0.5 h (A, C), 0.13 h (B), 1.5 h (D)
Procedure: as §1
Ten millimolar (10 mM) DMSO stocks of strasseriolide D (the test compound) and strasseriolide A (used as internal standard,) were prepared. From the strasseriolide D stock, a 59.7 µM (27,000 ppb) working concentration was made in DMSO and an aliquot of this was serially diluted (½) in reconstitution solution (1:1 of acetonitrile: H2O with 0.1% formic acid) to create a six-point calibration curve in triplicate. Three different quality control (QC) concentrations of strasseriolide D at 59.7, 0.74, and 0.25 µM (i.e. 27,000 ppb, 333 ppb and 111 ppb) were also prepared in duplicate. From the strasseriolide A (internal standard) stock, a 6.2 µM (2700 ppb) working concentration was prepared in DMSO.
Blank mouse plasma (prepared from non-injected mouse) was retrieved from the freezer (− 80 °C) and kept on ice to thaw. The sample was vortexed adequately and 15 µL aliquots transferred into 0.7 mL Eppendorf tubes after which 35 µL of Milli-Q water were added and vortexed. Triplicate sets of the diluted plasma were then respectively spiked with 2 uL of each concentration of the calibration curves of strasseriolide D. Another triplicate set of the diluted plasma was spiked with 2 µL of each concentration of the standard QC solutions. All the above samples were also spiked with 2 µL of strasseriolide A (the internal standard)). To serve as blank samples, a fresh triplicate set of diluted plasma were spiked with 4 µL of DMSO. Non-matrix samples were also prepared by spiking 100 µL aliquots of reconstitution solution with 2 µL of the standard QC solutions and 2 µL of internal standard.
Fifteen microlitres (15 µL) plasma from the various time points of the strasseriolide D-injected mice, were respectively transferred into 0.7 mL Eppendorf tubes. To each sample, 37 µL of Milli-Q water were added, vortexed and spiked with 2 µL of strasseriolide A (internal standard). Two hundred microlitres (200 µL) of ice-cold acetonitrile were added to all of the matrix (plasma-containing) samples and centrifuged at 13,300 rpm for 15 min at 4 °C. Subsequently, 180 µL aliquots were carefully transferred (without disturbing the protein precipitate) from each tube into clean HPLC vials and evaporated to dryness in an EZ2 Genevac at room temperature. The dried samples were then reconstituted in 40 µL of reconstitution solution by vortexing. The samples were placed in an auto-sampler drawer for LC–MS–MS analysis and quantification of strasseriolide D (the test compound) in mice plasma.
as §2
116 Table S2. QC table used to calculate the precision and accuracy of the method.
Compound Expected No. Experimental STD % %
conc. in values mean conc. deviation CV Accuracy
118 (5) The mean recovery rate for the test compound (strasseriolide B) – this was calculated
119 to be 29 % by comparing the plasma QC peak area ratios at the established retention time […]

[5] = system: Plasmodium falciparum strain 3D7 whole parasites; design: method as in PMID 32808790; settings: in vitro, read-out: IC50 against Plasmodium falciparum strain 3D7; cited from earlier work
[6] = system: HepG2 liver cells; design: method as in PMID 32808790; settings: cited from earlier work
[7] = Balb/C, mouse, in vivo, iv, 25 mg/kg, 24 h
[8] = Balb/C, mouse, in vivo, iv, 25 mg/kg
[9] = Balb/C, mouse, in vivo, iv, 25 mg/kg, Ave. Conc. in plasma

Compound: CCN(CC)CCCC(C)Nc1ccnc2cc(Cl)ccc12 (stereo not drawn) [Chloroquine, chloroquine, reference compound]
- Parasitaemia (Luminescence arbitrary units), Average ± SD ([1]; Table S7/Fig. 3A experiment: strasseriolide C 50 mg/kg i.p., read day 5, four replicates): 0.00 Luminescence arbitrary units
- Parasitaemia (Luminescence arbitrary units), single replicates ([1]; Table S7 experiment: strasseriolide C 50 mg/kg i.p., individual mice): 0.00 Luminescence arbitrary units
- Parasitaemia (Luminescence arbitrary units), Average ± SD ([1]; Table S8/Fig. 3B experiment: strasseriolide D 22 mg/kg i.p., read day 5, five replicates): 3 × 10^3 Luminescence arbitrary units

Compound: C/C1=C\[C@H](C)CCC(=O)/C(C)=C/[C@H](C)C[C@@H](C)CC[C@@H]([C@@H](C)C(=O)O)OC(=O)[C@@H](C)C1 [Strasseriolide A, strasseriolide A]
- half-life [2]: 6.47 ± 1.05 min
- Clearance Category [2]: High
- in vivo toxicity / mortality in mice [3, 7]: survived until 24 h post-i.v. injection
- in vivo toxicity / mortality in mice ([3]; mouse, in vivo, iv, 25 mg/kg): non-toxic
- AUC 0-t/0-inf_obs [4, 8]: 0.9738
- AUC(0-inf) [4, 8]: 510 ng·h/mL and 1.17 µM·h
- C0 [4, 8]: 378 ng/mL and 870 nM
- Clast_obs/Cmax [4, 8]: 0.009713
- Cmax [4, 8]: 216 ng/mL and 498 nM
- MRT [4, 8]: 2.98 h
- MRT inf [4, 8]: 2.99 h
- Tmax [4, 8]: 0.5 h
- Vss_obs [4, 8]: 0.1465 (mg/kg)/(ng/ml)
- Vz_obs (plasma distribution volume) [4, 8]: 312.4 L/kg
- k el [4, 8]: 4.36e-05 s⁻¹
- Calc. Conc. in plasma, individual mice [4, 7]: < 2.1 ng/mL
- Plasma Conc. @T24 h [4, 7]: <4.8 nM
- concentration at 8 min ([4]; Balb/C, mouse, in vivo, iv, 25 mg/kg, 24 h, read-out: Calc. Conc. in plasma, individual mice): < 0.00484 µM
- AUC(0-t) ([4]; Balb/C, mouse, in vivo, iv, 25 mg/kg, AUC 0-t): 1.14 µM·h and 496 ng·h/mL
- AUC(0-t) ([4]; Balb/C, mouse, in vivo, iv, 25 mg/kg, AUC0−t): 1.14 µM·h
- concentration at 0.5 h [4, 9]: 498 nM
- concentration at 2 h [4, 9]: 93.5 nM
- concentration at 6 h [4, 9]: 11.6 nM
- concentration at 24 h [4, 9]: < 4.84 nM
- concentration at 24 h ([4]; Balb/C, mouse, in vivo, iv, 25 mg/kg, Calc. Conc. in plasma, individual mice): < 2.1 ng/mL and < 4.84 nM
- concentration at 24 h ([4]; Balb/C, mouse, in vivo, iv, 25 mg/kg, Plasma Conc. @T24 h): < 4.8 nM
- half-life ([4]; Balb/C, mouse, in vivo, iv, 25 mg/kg, T1/2 (apparent terminal elimination half-life)): 4.4 h
- half-life ([4]; Balb/C, mouse, in vivo, iv, 25 mg/kg, t1/2): 4.41 h
- Cl_obs ([4]; mouse, in vivo, iv, 25 mg/kg): 0.04907 (mg/kg)/(ng/ml)/h
- IC50 [5]: 9.81 µM

Compound: C/C1=C\[C@H](C)CC[C@@H](O)/C(C)=C/[C@H](C)C[C@@H](C)CC[C@@H]([C@@H](C)C(=O)O)OC(=O)[C@@H](C)C1 [Strasseriolide B, strasseriolide B]
- in vitro toxicity against HepG2 liver cells [6]: no in vitro toxicity
- half-life [2]: 8.7 ± 2.4 min
- Clearance Category [2]: High
- time to death of all injected mice ([3]; i.v. 25 mg/kg): *Only Tinitial and the Plasma Conc @ Tinitial were recorded as all the mice injected with this compound died under 8 min
- in vivo toxicity / mortality in mice ([3]; i.v. 25 mg/kg, three mice, observed 24 h): all died just under eight minutes post-i.v. injection
- in vivo toxicity / mortality in mice at lower dosages ([3]; i.v. 10, 5 and 1 mg/Kg): all resulted in death of the mice injected
- concentration at 8 min ([4]; Balb/C, mouse, in vivo, iv, 25 mg/kg, i.v. 25 mg/kg, T 8 minutes, read-out: Ave. Conc. in plasma): 19.6 µM
- concentration at 8 min ([4]; Balb/C, mouse, in vivo, iv, 25 mg/kg, i.v. 25 mg/kg, T 8 minutes, read-out: Calc. Conc. in plasma, individual mice): 8110 ng/mL and 18.6 µM
- Calc. Conc. in plasma, individual mice ([4]; i.v. 25 mg/kg, T 8 minutes): 9098.0 ng/mL
- Calc. Conc. in plasma, individual mice ([4]; i.v. 25 mg/kg, T 8 minutes, listed as strasseriolide B): 8419.0 ng/mL
- concentration at 8 min ([4]; i.v. 25 mg/kg, T 8 minutes, listed as strasseriolide B, read-out: Calc. Conc. in plasma, individual mice): 19.3 µM
- concentration at 8 min ([4]; i.v. 25 mg/kg, T 8 minutes, read-out: Calc. Conc. in plasma, individual mice): 20.9 µM
- Plasma Conc. @Tinitial ([4]; i.v. 25 mg/kg): 19600 nM
- Plasma Conc. @Tinitial ([4]; i.v. 25 mg/kg, listed as B*): 19600 ± 1200 nM
- IC50 [5]: 0.013 µM
